Literature values, collected in patent US7223414B1, “Silica-calcium phosphate bioactive composite for improved synthetic graft resorbability and tissue regeneration” (priority 2002, dated 2007).
Counter-ions that a name gives are not always drawn.

Tested on: Staphylococcus aureus

CN[C@H](CC(C)C)C(=O)N[C@H]1C(=O)N[C@@H](CC(N)=O)C(=O)N[C@H]2C(=O)N[C@H]3C(=O)N[C@H](C(=O)N[C@H](C(=O)O)c4cc(O)cc(O)c4-c4cc3ccc4O)[C@H](O)c3ccc(c(Cl)c3)Oc3cc2cc(c3O[C@@H]2O[C@H](CO)[C@@H](O)[C@H](O)[C@H]2O[C@H]2C[C@](C)(N)[C@H](O)[C@H](C)O2)Oc2ccc(cc2Cl)[C@H]1O [vancomycin hydrochloride, Vancomycin hydrochloride]
breakpoint sensitivity: 5 mg/L
minimum bactericidal concentrations: 2.34 µg/mL
minimum inhibitory concentration: 1.18 µg/mL
